For the experiment, the target named is T1, Human TREM2 (Homo sapiens, UniProt Q9NZC2).
T1 construct: expressed in transfected cells
As to the kind of experiment: Human TREM2 activity: cellular phosphorylation of Syk (AlphaLISA SureFire Ultra p-SYK) in HEK293/DAP12+TREM2 stable cell line. It is filed as cell-based. To be noted: for Emax: HEK293, maximal response relative to reference agonist example 1B (remaining examples), read-out: Emax; for EC50: phospho-Syk AlphaLISA signal, HEK293/DAP12+TREM2 cells, concentration giving 50% of maximal response, read-out: EC50. An excerpt: Human TREM2, in vitro Measurement of Triggering Receptor Expressed on Myeloid Cells 2 activity using cellular phosphorylation of Spleen Tyrosine Kinase (“Syk”) Assay
HEK-293 cells were co-transfected with separate plasmids encoding TREM2 and DAP12 to generate a stable cell line. After antibiotic selection, functional clone pool analysis and two successive limiting dilutions, the final clone “HEK293/DAP12+TREM2” underwent a qPCR analysis and a pharmacological validation.
TREM2 signaling through DAP12 was monitored in the HEK293/DAP12+TREM2 stable cell line by measuring the phosphorylation levels of the Syk kinase using the commercially available AlphaLISA SureFire Ultra p-SYK (Tyr525/526) Assay Kit (PerkinElmer #ALSU-PSYK), based on the Perkin Elmer AlphaScreen/AlphaLISA technology.
Compounds are transferred to the test plate and tested in full dose response, 8 concentrations in quadruplicate data points. Compound serial dilutions were performed at Cybi-Felix instrument in 100% DMSO and the dose response curves were assembled in automated fashion in 384MPT at Hamilton STARlet instrument. All the stock solutions were prepared at 20 mM in 100% DMSO. For compounds testing, the starting concentration was 100 μM, dilution steps 1:6. […] Finally, a 384MPT reformatted for all compounds at 8 concentrations, quadruplicates, was used as “mother to child” process with a CyBi®-Well dispenser in which 1 μL of each compound was moved into a destination plate pre-filled with 65.6 μL of EMEM cell culture medium (BIOWHITTAKER_cat.BE12-125F), thus obtaining 3× concentrated compounds working solution. In columns 1-2 and 23-24 the control wells were added. In particular, dose response curves of a reference control agonist were included in column 1 and 24 as reference control agonist (Reference control agonists used include Human TREM2 polyclonal Antibody AF1828: R&D Systems; Human TREM2 monoclonal Antibody MAB1828: R&D Systems). The dose response curves were tested starting at 30 μM, dilution step 1:6. Both “source” compound plate and “destination” compound plate were barcoded and a relationship between the two plates was thus generated.
HEK293/DAP12+TREM2 cells were cultured in EMEM medium supplemented with IX Penicillin/Streptomycin (BIOWHITTAKER_cat.DE17-602E), ULTRAGLUTAMINE I 200 mM, 10% Fetal Bovine Serum plus antibiotics referred to as “HEK293 Culture Medium”. The day before the experiment, cells were detached by gentle wash with DPBS, followed by 5 min incubation at 37° C. with Trypsin solution. Cells were then diluted in HEK293 Culture Medium without antibiotics, counted and seeded into 384-well poly-D-Lysine coated microplates black/clear bottom (GREINER 781946) at a density of 10,000 cells/well in 25 μL/well by the use of a MATRIX WellMate dispenser. Plates were placed into a humidified cell culture incubator at 37° C. with 5% CO2 until the experimental day. 20-24 hours after seeding mature medium was removed and replaced with 10 μL/well of EMEM cell medium supplemented with 0.1% Pluronic F-68 non-ionic surfactant (Thermofisher, 24040032), referred to as “Assay Buffer”, using the CyBi®-Well instrument. Then 5 μL/well of Assay Buffer containing 3× concentrated test compounds or the reference control agonist (in 0.5% final DMSO concentration) were added to the cells with the CyBi®-Well instrument. Cell plates were incubated for 30 min into a humidified cell culture incubator at 37° C. with 5% CO2·, then the medium was removed by manually discard. 20 μL/well of lysis buffer were dispensed using the CyBi®-Well instrument and plates were incubated for 10 min at room temperature on a plate shaker (350 rpm). Then, 10 μL/well of lysate were transferred to the Alpha plates. The CyBi®-Well instrument was used to dispense 5 μL/well of AlphaLISA Acceptor Bead Solution in IX Immunoassay buffer (Perkin Elmer AL000F). Then the plates were sealed with Heat sealing foil, shaked for 2 minutes (350 rpm) and incubated for 1 hour at room temperature.
(In general: Alpha assays give light when donor and acceptor beads are brought close together.)

Data on 26 compounds can be found in US20260200926A1, “TREM2 MODULATORS” (Muna Therapeutics ApS, priority 2022, published 2026).

T1 sequence (Q9NZC2 19-230): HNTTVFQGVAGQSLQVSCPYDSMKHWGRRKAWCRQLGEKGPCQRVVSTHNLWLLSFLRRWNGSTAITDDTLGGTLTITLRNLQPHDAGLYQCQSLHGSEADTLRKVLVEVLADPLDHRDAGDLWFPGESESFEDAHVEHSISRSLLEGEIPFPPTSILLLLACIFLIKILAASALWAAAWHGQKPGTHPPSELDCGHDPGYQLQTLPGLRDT
T1 sequence (O43914 22-113 partner): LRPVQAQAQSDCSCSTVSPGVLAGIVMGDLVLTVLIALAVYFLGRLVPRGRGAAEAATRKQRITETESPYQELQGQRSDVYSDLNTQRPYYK

As usually defined, the Emax is the greatest response seen or fitted, relative to the assay's reference. The term EC50 denotes the concentration needed to bring the measured effect to its halfway point. As to `Cc1nc2c(-c3ccc(Cl)cc3F)nc(N3C[C@H](c4cnn(C)c4)OC(C)(C)C3)nc2c(=O)n1C` (single isomer, unassigned) [Example 89B], the Emax lay within 75 to 110% and the EC50 lay in the range of 10 to 100 nM.
On the same counts, the results for `Cn1cc([C@H]2CN(c3nc(-c4ccc(Cl)cc4F)c4nc(C(F)(F)F)n(C)c(=O)c4n3)CCO2)cn1` (single isomer, unassigned) [Example 103] are 75 to 110% and 1 to 10 nM.
In the case of `Cc1cc([C@@H]2CN(c3nc(-c4ccc(F)cc4F)c4nc(C)n(C)c(=O)c4n3)C[C@H](C)O2)ccn1` (single isomer, unassigned) [Example 175A], the maximum response (Emax) lay within 75 to 110% and the EC50 lay within 1 to 10 nM.
On the same counts, the results for `Cc1nc2c(-c3ccc(F)cc3F)nc(N3C[C@H](c4cnn(C)c4)OC(F)(F)C3)cc2c(=O)n1C` (single isomer, unassigned) [Example 166B] are < 75% and 10 to 100 nM.
As to `Cc1nc2c(-c3ccc(C(F)(F)F)cc3F)nc(N3CCO[C@@H](c4cnn(C)c4)C3)nc2c(=O)n1C` (single isomer, unassigned) [Example 25B], the Emax was < 75% and the EC50 was in the range of 10 to 100 nM.
Regarding `Cc1nc2c(-c3ccc(F)cc3F)nc(N3C[C@H](c4cnn(C)c4)OC(C)(C)C3)nc2c(=O)n1C` (single isomer, unassigned) [Example 121B], the maximal effect (Emax) was < 75% and the half-maximal effective concentration (EC50) is > 1000 nM.
On to `Cc1nc2c(-c3ccc(Cl)cc3F)nc(N3CCOC(c4ncc[nH]4)C3)nc2c(=O)n1C` (stereo not shown) [Example 81, 6-(2-(1H-imidazol-2-yl)morpholino)-8-(4-chloro-2-fluorophenyl)-2,3-dimethylpyrimido[5,4-d]pyrimidin-4(3H)-one], for which the Emax is < 75% and the EC50 was > 1000 nM.
On the same counts, the results for `Cc1nc2c(-c3ccc(Cl)cc3F)nc(N3CCN(C)C(c4cnn(C)c4)C3)nc2c(=O)n1C` (stereo not shown) [Example 29, 8-(4-chloro-2-fluorophenyl)-2,3-dimethyl-6-(4-methyl-3-(1-methyl-1H-pyrazol-4-yl)piperazin-1-yl)pyrimido[5,4-d]pyrimidin-4(3H)-one] are < 75% and 100 to 1000 nM.
In the case of `Cc1nc2c(-c3ccc(C(F)(F)F)nc3)nc(N3CCOC(c4cnn(C5CC5)c4)C3)nc2c(=O)n1C` (racemic) [Example 19, 6-(2-(1-cyclopropyl-1H-pyrazol-4-yl)morpholino)-2,3-dimethyl-8-(6-(trifluoromethyl)pyridin-3-yl)pyrimido[5,4-d]pyrimidin-4 (3H)-one], the Emax is < 75% and the concentration for a half-maximal effect (EC50) lay in the range of 10 to 100 nM.
For `Cc1nc2c(-c3ccc(C(F)(F)F)cc3F)nc(N3CCO[C@H](c4cnn(C5CC5)c4)C3)nc2c(=O)n1C` (single isomer, unassigned) [Example 20A], the Emax fell in the range of 75 to 110% and the EC50 lay in the range of 10 to 100 nM.
On the same counts, the results for `Cc1cc([C@@H]2CN(c3nc(-c4ccc(C(F)(F)F)nc4)c4nc(C)n(C)c(=O)c4n3)CCO2)ccn1` (single isomer, unassigned) [Example 22A] are 75 to 110% and 100 to 1000 nM.
On the same counts, the results for `Cc1cc([C@@H]2CN(c3nc(-c4ccc(C(F)(F)F)cc4F)c4nc(C)n(C)c(=O)c4n3)CCO2)ccn1` (single isomer, unassigned) [Example 21A] are 75 to 110% and 10 to 100 nM.
On the same counts, the results for `Cc1nc2c(-c3ccc(C(F)(F)F)nc3)nc(N3CCO[C@H](c4cnn(C)c4)C3)nc2c(=O)n1C` (single isomer, unassigned) [Example 28A] are 75 to 110% and > 1000 nM.
For `COC1CN(C2CCCN(c3nc(-c4ccc(Cl)cc4F)c4nc(C)n(C)c(=O)c4n3)C2)C1` (stereo not shown) [Example 79, 8-(4-chloro-2-fluorophenyl)-6-(3-(3-methoxyazetidin-1-yl)piperidin-1-yl)-2,3-dimethylpyrimido[5,4-d]pyrimidin-4 (3H)-one], the Emax was < 75% and the concentration giving a half-maximal response (EC50) was > 1000 nM.
The like results for `Cc1cc([C@@H]2CN(c3cc4c(=O)n(C)c(C)nc4c(-c4ccc(F)cc4F)n3)CCO2)ccn1` (single isomer, unassigned) [Example 136A] were, in that order, 75 to 110% and 1 to 10 nM.
As for `Cc1cc([C@H]2C[C@H](c3nc(-c4ccc(Cl)cc4F)c4nc(C)n(C)c(=O)c4n3)CCO2)ccn1` (single isomer, unassigned) [Example 95], the Emax was < 75% and the EC50 was in the range of 100 to 1000 nM.
On the same counts, the results for `Cc1cc([C@H]2CN(c3cc4c(=O)n(C)c(C)nc4c(-c4ccc(F)cc4F)n3)C[C@@H](C)O2)ccn1` (single isomer, unassigned) [Example 182B] are < 75% and 100 to 1000 nM.
Regarding `Cc1nc2c(-c3ccc(C(F)(F)F)cc3F)nc([C@H]3CCO[C@@H](c4cnn(C5CC5)c4)C3)cc2c(=O)n1C` (single isomer, unassigned) [Example 153B], the maximal response (Emax) is < 75% and the EC50 was in the range of 100 to 1000 nM.
On the same counts, the results for `Cc1nc2c(-c3ccc(Cl)cc3F)nc(N3CCN(CCF)C(c4cnn(C)c4)C3)nc2c(=O)n1C` (stereo not shown) [Example 31, 8-(4-chloro-2-fluorophenyl)-6-(4-(2-fluoroethyl)-3-(1-methyl-1H-pyrazol-4-yl)piperazin-1-yl)-2,3-dimethylpyrimido[5,4-d]pyrimidin-4(3H)-one] are 75 to 110% and 10 to 100 nM.
On the same counts, the results for `Cn1c(C(F)(F)F)nc2c(-c3ccc(F)cc3F)nc([C@H]3CCO[C@@H](c4cnn(C5CC5)c4)C3)nc2c1=O` (single isomer, unassigned) [Example 196B] are < 75% and 10 to 100 nM.
The like results for `Cc1nc2c(-c3ccc(C(F)(F)F)cc3F)nc(N3CCO[C@H](c4cnn(C5CC5)c4)C3)cc2c(=O)n1C` (single isomer, unassigned) [Example 132A] were, in that order, 75 to 110% and 1 to 10 nM.
For the compound `Cc1nc2c(-c3cc(F)c(F)c(F)c3)nc(N3CCOC(c4cnn(C)c4)C3)nc2c(=O)n1C` (stereo not shown) [Example 8, 2,3-dimethyl-6-(2-(1-methyl-1H-pyrazol-4-yl)morpholino)-8-(3,4,5-trifluorophenyl)pyrimido[5,4-d]pyrimidin-4(3H)-one], the Emax was < 75% and the EC50 fell in the range of 100 to 1000 nM.
On the same counts, the results for `Cc1nc2c(-c3ccc(Cl)cc3F)nc(N3C[C@@H](c4cnn(C)c4)OC4(CC4)C3)c(F)c2c(=O)n1C` (single isomer, unassigned) [Example 173A] are < 75% and 10 to 100 nM.
With `Cc1nc2c(-c3ccc(F)cc3F)nc(N3C[C@@H](c4cnn(C5CC5)c4)O[C@@H](C)C3)nc2c(=O)n1C` (single isomer, unassigned) [Example 177A], the Emax is < 75% and the half-maximal effective concentration (EC50) lay within 10 to 100 nM.
The like results for `Cc1nc2c(C3CCNCC3)nc(N3CCOC(c4cnn(C)c4)C3)nc2c(=O)n1C` (stereo not shown) [Example 87, 2,3-dimethyl-6-(2-(1-methyl-1H-pyrazol-4-yl)morpholino)-8-(piperidin-4-yl)pyrimido[5,4-d]pyrimidin-4 (3H)-one] were, in that order, 75 to 110% and > 1000 nM.
Take `Cc1nc2c(-c3ccc(F)cc3F)nc(N3C[C@H](c4cnn(C)c4)OC(F)(F)C3)nc2c(=O)n1C` (single isomer, unassigned) [Example 156B]: the maximum response (Emax) was in the range of 75 to 110% and the EC50 is 10 to 100 nM.
